Results reported in patent US10787423B2, “Piperazine and piperidine derivatives, their synthesis and use thereof in inhibiting VDAC oligomerization, apoptosis and mitochondria dysfunction” (THE NATIONAL INSTITUTE FOR BIOTECHNOLOGY IN THE NEGEV LTD., priority 2015, dated 2020).
Read-outs that look alike come from different tables or passages of the source.

What was measured:
VDAC1 = VDAC1 (Homo sapiens, UniProt P21796); test: Selenite-induced VDAC1 oligomerization by EGS cross-linking and immunoblot in HEK-293 cells (Method B); assay type: cell-based; set-up: endogenous in cells; host or cells: HEK-293; settings: HEK-293 cells, compound 2 h then selenite 15 μM 4 h; means±SD (n=3); read-out: VDAC1 oligomerization IC50
Experimental: Appropriate test cells (2.5-3 mg/ml) in PBS, were harvested after the treatment and incubated with the cross-linking reagent EGS at a ratio of 100-300 μM for sample of 2-3 mg protein/ml concentration (pH 8.3) for 15 minutes. Protein concentration was determined according to Lowry assay. Samples (60-80 μg protein) were subjected to SDS-PAGE by a standard technique and immunoblotting was performed using anti-VDAC1 antibodies. Gels were electro-transferred onto nitrocellulose membranes for immuno-staining. The membranes were incubated with a blocking solution containing 5% non-fat dry milk and 0.1% Tween-20 in Tris-buffered saline, followed by incubation with monoclonal anti-VDAC1, anti-Cytochrome c, anti-AIF or anti-actin antibodies. Membranes were then incubated with HRP-conjugated anti-mouse or anti-rabbit IgG (1:10,000), serving as secondary antibodies. Antibody labeling was detected by chemiluminescence. To detect VDAC1 oligomers, membranes were treated with 0.1 M glycine, pH 2.0, prior to immunoblotting and washed several times with 0.1% Tween-20 in Tris-buffered saline. Quantitative analysis of immuno-reactive VDAC1 dimer, trimer and multimer bands was performed using FUSION-FX (Vilber Lourmat, France).
The closed circle (●) indicates VBIT-4 (compound of Formula 1), the open circle (◯) indicates compound of Formula 10, and an open square (□) indicates VBIT-3 (compound of Formula 2).
d. IC50 values of the tested compounds were derived from the obtained data. The results shown correspond to means±SD (n=3).

[1] = Brain penetration after oral gavage, HPLC/MS of brain extracts; assay type: in vivo, C57BL/6 mice; settings: for concentration at 24 h: C57BL/6, mouse, brain, oral, 50 mg/kg, mouse, read-out: Compounds in brain extract
Experimental: C57BL/6 mice ([…]) were used. The animals received treatments with either free compounds of Formulae 1 and 10, or encapsulated compounds, prepared according to the Examples 16 and 17. Doses as indicated in the Table 4 below were administered in phosphate-buffered saline (PBS) through an oral gavage. After 12 hours and 24 hours, randomly selected mice from each group were sacrificed, their brains collected and stored in −80° C. The concentrations of the compounds in the tissues were determined by HPLC/MS analysis.
Tissue samples were homogenized in phosphate-buffered saline solution, then diluted with acetonitrile to 50% v/v, centrifuged at 10,000 g for 10 minutes, and supernatants were analyzed. The compounds concentrations in the brain extracts were determined from calibration curves. The results were the averaged from 2 mice for each treatment group/time point.

[2] = IC50 for several activities / effective range (activity not specified); settings: quoted for comparison with brain levels
dopaminergic neurons = test: MPTP-induced Parkinson-like disease mouse model, brain immunofluorescence; assay type: in vivo, C57BL/6N male mice; settings: MPTP 20 mg/kg IP 5 days; 20 mg/kg in drinking water from day 3
Experimental: The Experimental protocols were approved by the Institutional Animal Care and Use Committee. Briefly, C57BL/6N male mice 3-months old were injected IP 3 times/week with vehicle (saline) as control. Parkinsonism was induced by repetitive intraperitoneal injection of 20 mg/kg 1-methyl-4-phenyl-1,2,3,6-tetrahydropyridine hydrochloride (MPTP), Sigma, Israel) in saline, for 5 consecutive days. Group 3 was injected with MPTP and at day 3 of MPTP treatment it was subjected to compound of Formula 3 (VBIT-12) 20 mg/kg in drinking water.
Brains from the scarified mice were analyzed for the pathophysiological features of PD-like mouse models as induced by MPTP and the effect of VBIT-12 on the dopaminergic neurons (DN) was analyzed. Fixed brains were subjected to coronal sections (5 μm thickness) including the Substantia nigra pars compacta (SNc), ventral tegmental area (VTA) and Substantia nigra pars reticular (SNR) (see FIG. 25B) and used for immunofluorescence (IF) (FIG. 25C). Evaluation of dopaminergic neuron degeneration was monitored using anti-Tyrosine hydroxylase (TH) antibodies, which is expressed in dopaminergic neurons.
This decrease was prevented by VBIT-12, as reflected by the increase of the number of cells stained with TH relative to the MPTP-treated group not subjected to VBIT-12.
Sections were also subjected for staining with anti-VDAC1 antibodies (FIG. 25D). […]

Sequence of VDAC1 (P21796 whole entry): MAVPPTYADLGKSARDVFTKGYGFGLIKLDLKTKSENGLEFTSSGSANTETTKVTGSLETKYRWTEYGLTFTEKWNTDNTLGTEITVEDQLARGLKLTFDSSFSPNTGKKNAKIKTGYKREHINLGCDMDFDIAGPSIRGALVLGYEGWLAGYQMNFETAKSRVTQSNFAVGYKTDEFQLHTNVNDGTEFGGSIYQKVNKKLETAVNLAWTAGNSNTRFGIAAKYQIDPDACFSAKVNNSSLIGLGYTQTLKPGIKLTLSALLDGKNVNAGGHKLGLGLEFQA

IC50 (VDAC1) [nM] | concentration at 24 h ([1]; 50 mg/kg in PLGA nanoparticles, oral gavage) [nM] | concentration at 24 h ([1]; 50 mg/kg oral gavage, free compound) [nM] | brain penetration ([1]; given orally, in solution or encapsulated in PLGA nano-particles) | IC50 [2] [nM] | Structure (SMILES) | VDAC1 levels in dopaminergic neurons (anti-VDAC1 staining) (dopaminergic neurons) | dopaminergic neurons in SNc (TH staining) (dopaminergic neurons)
1900 | 190 ± 70 | 120 ± 20 | reached the brain | 1000 | O=C(CC(CO)N1CCN(c2ccc(OC(F)(F)F)cc2)CC1)Nc1ccc(Cl)cc1 (racemic) [Formula 1, N-(4-chlorophenyl)-4-hydroxy-3-(4-(4-(trifluoromethoxy)phenyl)-piperazin-1-yl)butanamide] | – | –
– | – | – | – | – | O=C(O)CNC(=O)C1(Nc2ccccc2)CCN(Cc2cccc3ccccc23)CC1 [Formula 3] | decreased | protected against neuronal loss
